Entries after “also recorded” stand apart in the source; their conditions may differ.
Legend:
[1] = Pharmacokinetics of triphosphate PSI-7409 in rat liver after peroral administration; format: in vivo, Sprague Dawley rats; settings: comparison of Cmax and AUC24h in rat liver
Experimental: The tested composition was administered at a dose of 50 mg/kg. To this end, compositions were prepared with a concentration of prodrug 1.1 or Sovaldi® of 5.0 mg/ml in a 0.5% solution of hydroxypropyl methylcellulose (HPMC), to which 5% ethanol was added, as follows: to a weighed portion of the prodrug of formula 1.1 or Sovaldi®, an appropriate amount of HPMC was added, and the mixture was triturated dry in a mortar, whereafter a proper quantity of 5% ethanol in distilled water was gradually added portionwise, and the mixture was carefully stirred to obtain a suspension suitable for intragastric administration.
The study was carried out on Sprague Dawley rats. The rats were divided into groups of 6 based on selected time points (1, 2, 4, 6, 8, 10, 12, 16, and 24 h). The rats were weighed, and the volume of compositions comprising the prodrug of formula 1.1 or Sovaldi® was calculated for each animal at a rate of 10 ml/kg. Compositions comprising the prodrug of formula 1.1 or Sovaldi® were administered intragastrically through a feeding tube. […]
Samples were analyzed using an HPLC-MS/MS technique, wherein the HPLC system Agilent 1290 Infinity II was combined with the AB Sciex QTrap 5500 mass spectrometer. […] PSI-7409 and H027-4261 were recorded in MRM mode with ion transitions of 499/159 and 410/150, respectively. […]

physchem = settings: simulated gi fluid
Experimental: (§1) Evaluation of stability in biological matrix for compositions comprising the prodrug of formula 1.1. Initial compositions comprising the prodrug of formula 1.1 (the tested compounds) were prepared with a concentration of 10 mM in DMSO. From said compositions, 100-fold working solutions were prepared with a concentration of 100 μM in a mixture of acetonitrile: water with a volumetric ratio of 1:1.
The tested composition comprising the prodrug of formula 1.1 in a final concentration of 1 μM was incubated in artificial gastric juice (0.2% NaCl in 0.7% v/v HCl) and artificial intestinal juice (0.05M KH2PO4, pH 6.75). The incubation was performed in a Vortemp56 shaking incubator at 37° C. with stirring at a rate of 300 rev/min. […] The samples were then centrifuged, and the supernatant (150 μl) was sampled for analysis […]. The incubation was performed in two replicates, with each sample measured twice.
Samples were analyzed using an HPLC-MS/MS technique developed for each tested prodrug, wherein the chromatographic system 1290 Infinity II (Agilent Technologies) was combined with the tandem mass spectrometer QTRAP5500 (AB Sciex). When developing conditions for mass-spectrometric detection, the solutions of tested compounds in a mixture of acetonitrile-water (1:1) with a concentration of 100 ng/ml were injected directly into the mass spectrometer using a syringe pump with electrospray ionization carried out in a positive ion mode. Scanning in a total ion current mode (MS1) allowed us to identify a molecular ion for each compound, and basic product ions were recorded in MS2 mode. Then, to attain maximum sensitivity, the MS/MS technique was optimized in MRM mode. In quantitative chromatogram processing, the most intensive MRM transition was used for the analyte and the internal standard. Separation was carried out by means of linear gradient elution chromatography on a YMC Triart C18 column (50×2 mm, 1.9 μm) in a mobile phase consisting of 0.1% formic acid in water and 0.1% formic acid in acetonitrile. Tolbutamide (Fluka) was used as the internal standard.
Half-life (T1/2) was found from the kinetics of tested prodrug elimination in an antiviral composition during incubation in a biological matrix. The computations were based on the values of chromatographic peak areas for compounds in test samples normalized to the internal standard signal. From linear dependence of log normalized areas of chromatographic peaks on time, the constant of elimination rate was calculated (k is linear section slope).

in vitro = settings: human, plasma
Experimental: as §1
The incubation was performed in a Vortemp56 shaking incubator at 37° C. with stirring at a rate of 300 rev/min. […] The samples were then centrifuged, and the supernatant (150 μl) was sampled for analysis […]. The incubation was performed in two replicates, with each sample measured twice.
Samples were analyzed using an HPLC-MS/MS technique developed for each tested prodrug, wherein the chromatographic system 1290 Infinity II (Agilent Technologies) was combined with the tandem mass spectrometer QTRAP5500 (AB Sciex). […] Scanning in a total ion current mode (MS1) allowed us to identify a molecular ion for each compound, and basic product ions were recorded in MS2 mode. […] In quantitative chromatogram processing, the most intensive MRM transition was used for the analyte and the internal standard. […]

[2] = Stability in human liver S9 fraction; format: in vitro ADME
Experimental: Proteins were deposited on ice for 15 min. The samples were then centrifuged for 10 min at 3000 rpm, and the supernatant (150 μl) was sampled for analysis.
Tolbutamide (Fluka) was used as the internal standard.

## C[C@H](N[P@](=O)(OC[C@H]1O[C@@H](n2ccc(=O)[nH]c2=O)[C@](C)(F)[C@@H]1O)Oc1ccccc1)C(=O)OC1CCC1 [Prodrug 1.1, cyclobutyl (S)-2-{(S)-[(2R,3R,4R,5R)-5-(3,4-dihydro-2,4-dioxo-2H-pyrimidin-1-yl)-3-hydroxy-4-methyl-4-fluoro-tetrahydro-furan-2-ylmethoxy]-phenoxy-phosphorylamino}-propanoate]
[1]
  effectiveness of liver metabolism into triphosphate PSI-7409 relative to Sovaldi: almost twice more effective; also recorded: almost two times more effectively
physchem; T1/2 SGF, artificial gastric juice, 37° C.
  half-life at 1 μM: 12.7 to 15 h
physchem; pH 6.75
  half-life at 1 μM: > 24 h
In vitro
  half-life at 1 μM: > 24 h
[2]; pH 7.4, human liver S9 fraction 1 mg/ml protein, 37° C., 1 μM, read-out: T1/2 Human S9 (converted)
  half-life at 1 μM: 3 min
[2]; ratio of T1/2 in human S9
  metabolic rate in human liver microsomal S9 fraction relative to Sovaldi (faster): 11 times
